# Measurements: US8558028B2, “Compound capable of inhibiting 17-beta hydroxysteriod dehydrogenase” (University of Bath of Claverton Down, priority 2007, dated 2013)
# Biological target: T1, human 17β-HSD3 (Homo sapiens, UniProt P37058)
# T1 construct: 293-EBNA cells stably transfected with 17β-HSD Type 3; expressed in transfected cells; host or cells: human 293-EBNA cells, stably transfected
# T1 sequence (P37058 1-310): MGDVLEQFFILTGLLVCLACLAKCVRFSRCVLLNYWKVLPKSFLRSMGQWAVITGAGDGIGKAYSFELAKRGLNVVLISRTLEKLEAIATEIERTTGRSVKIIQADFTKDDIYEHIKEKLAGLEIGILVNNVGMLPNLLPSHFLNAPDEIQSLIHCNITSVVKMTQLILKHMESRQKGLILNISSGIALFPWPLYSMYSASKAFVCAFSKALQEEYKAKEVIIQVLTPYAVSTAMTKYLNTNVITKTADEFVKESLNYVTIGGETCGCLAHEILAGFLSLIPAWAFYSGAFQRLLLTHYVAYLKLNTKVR
# Test: 17β-Hydroxysteroid dehydrogenase Type 3 activity in stably transfected 293-EBNA cells (TLC assay, 3H-androstenedione to testosterone)
# Type: cell-based
# Settings: human 293-EBNA cells stably transfected with 17β-HSD Type 3, mean of at least 2 measurements, typically SD ±5%
# Protocol: Assay Protocol-17β-Hydroxysteroid Dehydrogenase Type 3 Activity in the Presence of Regulatory Agents
# 293-EBNA cells stably transfected with 17β-HSD Type 3 were plated at 50,000 cells/well in 24 well plates in complete growth medium. After 48 hours 2-3 nM ^3H-Androstenedione in assay medium (500 ml DMEM medium with 5 ml 100×L-Glutamine, and 5 ml 7.5% sodium bicarbonate solution) was added with or without test compound at 1.5 ml/well (triplicate), and the cells incubated at 37° C.
# Two hours later 1 ml medium was removed from each well and placed in a 125×16 mm glass test tube containing 25 μl of recovery solution (5000 dpm ^14C-Testosterone and 25 μg unlabelled
# Testosterone). Ether (4 ml) was added and the tubes vortexed at high speed for 2×30 sec. After the samples had settled into two phases they were snap-frozen in a dry ice/methanol bath. The upper organic phase was decanted into 75×12 mm tubes and evaporated to dryness under an airstream using a sample concentrator (TECHNE) at 40° C. The samples were resuspended in ether (8 drops, then a further 3), spotted onto silica 60 F254 20 cm×20 cm TLC plates, and separated using a 4:1 v/v dichloromethane:ethyl acetate mobile phase.
# After drying the plates, the major spots were marked under a UV lamp, cut out, and placed in individual scintillation vials containing 0.5 ml methanol. These were then shaken lightly and allowed to stand for 15 min before adding 10 ml of EcoScint A (scintillation fluid) to each tube along with 0.5 ml assay medium, and counted in a scintillation spectrometer (Beckman) using a program for dual [^3H/^14C] isotopes. The number of cells/well was then counted using a Coulter counter (Beckman).
# The inhibitory activity of the test compounds is then assessed by calculating the amount of product formed correcting for crossover between isotope counts, recovery, dilution and non-enzymatic degradation (fmol/hr/million cells) with and without inhibitor, (% inhibition).
# Compounds were tested at 10 μM for inhibition of human 17β-HSD3 with typically ˜200,000 to 300,000 human 293-EBNA cells/well.
row,SMILES,inhibition at 10 µM [%]
1,CC(=O)Nc1ccccc1CNc1ccccc1Oc1ccc(OC(F)(F)F)cc1,> 60
2,CC(=O)Nc1ccccc1CNc1cc(F)ccc1Oc1ccc(Cl)cc1,> 60
3,CC(=O)Nc1cc2c(cc1CNc1ccccc1Oc1ccc(Cl)cc1)OCO2,> 60
4,COc1cc(CNc2ccccc2Oc2ccc(Cl)cc2)c(NC(C)=O)cc1OC,< 20
5,COc1cc(CNc2ccccc2Oc2ccc(Cl)cc2Cl)c(NC(C)=O)cc1OC,< 20
6,CC(=O)Nc1c(CNc2ccccc2Oc2ccc(Cl)cc2)ccc2ccccc12,< 20
7,CC(=O)Nc1ccc(C)cc1CNc1ccccc1Oc1ccc(Cl)cc1,> 60
8,CC(=O)Nc1ccc(Cl)cc1CNc1ccccc1Oc1ccc(Cl)cc1,> 60
9,CC(=O)Nc1ccc(Cl)cc1CNc1ccccc1Oc1ccc(Cl)cc1Cl,20 to 60
10,CC(=O)Nc1ccc(Cl)cc1CNc1ccccc1Oc1ccc(OC(F)(F)F)cc1,> 60
11,O=C(Nc1ccccc1C(=O)Nc1ccccc1Oc1ccc(Cl)cc1)c1ccccc1,< 20
12,CC(=O)N(C)c1ccccc1CNc1ccccc1Oc1ccc(Cl)cc1,> 60
13,CC(=O)N(C)c1ccccc1CN(C)c1ccccc1Oc1ccc(Cl)cc1,20 to 60
14,CC(=O)Nc1ccccc1CN(C(C)=O)c1ccccc1Oc1ccc(Cl)cc1,< 20
15,CC(=O)Nc1ccc(CNc2ccccc2Oc2ccc(Cl)cc2)cc1,20 to 60
16,CC(=O)Nc1ccc(CNc2ccccc2Oc2ccc(Cl)cc2Cl)cc1,< 20
17,CC(=O)N1CCC(Nc2ccccc2CN(C(C)=O)c2ccccc2Oc2ccc(Cl)cc2)CC1,20 to 60
18,CC(=O)N1CCC(Nc2ccccc2CNc2ccccc2Oc2ccc(Cl)cc2)CC1,20 to 60
19,CC(=O)N1CCC(C(=O)Nc2ccccc2CNc2ccccc2Oc2ccc(Cl)cc2)CC1,> 60
20,CC(=O)N1CCC(C(=O)Nc2cccc(CNc3ccccc3Oc3ccc(Cl)cc3)c2)CC1,> 60

# Next, values leading:
row,inhibition at 10 µM [%],SMILES
1,> 60,CC(=O)Nc1ccccc1CNc1ccccc1Oc1ccc(Cl)cc1
2,< 20,CC(=O)Nc1ccccc1C(=O)Nc1ccccc1Oc1ccc(Cl)cc1
3,< 20,CC(=O)Nc1ccccc1CN(C)c1ccccc1Oc1ccc(Cl)cc1
4,20 to 60,CC(=O)Nc1cccc(CNc2ccccc2Oc2ccc(Cl)cc2)c1
5,20 to 60,CCNc1ccccc1C(C)Nc1ccccc1Oc1ccc(Cl)cc1 (centres unmarked)
6,> 60,CCN(C(C)=O)c1ccccc1C(C)Nc1ccccc1Oc1ccc(Cl)cc1 (centres unmarked)
7,> 60,C=CCC(Nc1ccccc1Oc1ccc(Cl)cc1)c1ccccc1NC(C)=O (centres unmarked)
8,20 to 60,C=CC[C@@H](Nc1ccccc1Oc1ccc(Cl)cc1)c1ccccc1NC(C)=O
9,> 60,C=CC[C@H](Nc1ccccc1Oc1ccc(Cl)cc1)c1ccccc1NC(C)=O
10,< 20,CC(=O)Nc1ccccc1C(Cc1ccccc1)Nc1ccccc1Oc1ccc(Cl)cc1 (centres unmarked)
11,> 60,CCCC(Nc1ccccc1Oc1ccc(Cl)cc1)c1ccccc1NC(C)=O (centres unmarked)
12,> 60,CC(=O)Nc1ccccc1C(C)Nc1ccccc1Oc1ccc(Cl)cc1 (centres unmarked)
